Literature values in patent publication US20040229941A1, “Analeptic and antidepressant combinations” (Cephalon, Inc., priority 2003, published 2004).

Conditions: at 6 weeks of antidepressant therapy

## CNCCC(Oc1ccc(C(F)(F)F)cc1)c1ccccc1 (stereo not shown) [fluoxetine]
  response: about 50%
